Measurements as given in patent US20110289824A1, “COMPOUNDS, METHODS, AND DEVICES FOR DETECTING AND/OR TREATING INSECT INFESTATION” (priority 2010, published 2011).

Columns and labels:
[1] = tested on: Cimex lectularius (adults); test: Device choice test in arenas: compound device vs mixture device vs untreated control (Tables 2 and 3); type: in vivo; settings: 1.0 mg of each compound per device (Device A), 20 bugs per arena, against mixture device and UTC
Method: The attraction, arresting, or aggregation of bed bugs from the species Cimex lectularius to cholesterol, 2-Heptanone, and 2-Heptanone oxime was evaluated in Tables 2 and 3 by the following methodology. In this example, 20 Cimex lectularius (adults) were placed in plastic boxes (20×20 cm). The bottom of each box was covered with paper. A piece of folded filter paper served as a shelter for the Cimex lectularius bed bugs. The bed bugs were fed two days before they were put into the test-arenas. As set forth in Table 2, three types of devices were compared: Device (A): a device containing cholesterol (Box 1), a device containing 2-Heptanone (Box 2), a device containing 2-Heptanone-oxime (Box 3), and a device containing 2-Heptanone and 2-Heptanone-oxime (Box 4); Device (B): a device containing a mixture of cholesterol, 2-Heptanone, and 2-Heptanone-oxime (Box 1-4); and Device (C) a device without an attractant, arresting, or aggregating compound, serving as a control (“UTC”). The concentrations of the compounds tested are as follows: Cholesterol—1% in ethanol, 0.1 ml per detection device (1 mg a.i.); 2-Heptanone—1% in ethanol, 0.1 ml per detection device (1 mg a.i.); and 2-Heptanone oxime—1% in ethanol, 0.1 ml per detection device (1 mg a.i.). [table] The number of bed bugs in the different devices and on the bottom of the arenas were counted at day 1, day 4, and day 7 after the start of the trial. The total number of bugs per arena was 20. The relative effectiveness of cholesterol, 2-Heptanone, and 2-Heptanone-oxime in attracting, arresting, or aggregating bed bugs was evaluated in Table 3.

[2] = tested on: Cimex lectularius (adults); test: Device choice test in arenas: treated device vs untreated control at 0.1 mg and 0.5 mg (Tables 4 and 5); type: in vivo; settings: 20 bugs per arena, against UTC device
Method: In this example, 20 Cimex lectularius (adults) were placed in plastic boxes (20×20 cm). The bottom of each box was covered with paper. A piece of folded filter paper served as a shelter for the Cimex lectularius bed bugs. The bed bugs were fed two days before they were put into the test-arenas. As set forth in Table 4, the ability of 2-Heptanone and 2-Heptanone-oxime to attract bed bugs at a concentration of 0.1 mg and 0.5 mg was evaluated. Device (A) includes 2-Heptanone, 2-Heptanone oxime, or both 2-Heptanone and 2-Heptanone oxime. Device (B) served as an untreated control. [table] […] The total number of bugs per arena was 20.

SMILES | Number of bed bugs in the device (Compounds) ([1]; day 1) | Number of bed bugs in the device (Compounds) ([1]; day 4) | Number of bed bugs in the device (Compounds) ([1]; day 7) | Number of bed bugs in the device (Compounds + concentrations) ([2]; 0.1 mg per device, day 1) | Number of bed bugs in the device (Compounds + concentrations) ([2]; 0.1 mg per device, day 3) | Number of bed bugs in the device (Compounds + concentrations) ([2]; 0.1 mg per device, day 6) | Number of bed bugs in the device (Compounds + concentrations) ([2]; 0.5 mg per device, day 1) | Number of bed bugs in the device (Compounds + concentrations) ([2]; 0.5 mg per device, day 3) | Number of bed bugs in the device (Compounds + concentrations) ([2]; 0.5 mg per device, day 6)
CCCCCC(C)=NO [2-Heptanone-oxime, 2-Heptanone oxime] | 13 | 13 | 13 | 12 | 14 | 15 | 8 | 11 | 12
CCCCCC(C)=O [2-Heptanone] | 2 | 2 | 2 | 0 | 0 | 1 | 0 | 0 | 1
CC(C)CCC[C@@H](C)[C@H]1CC[C@H]2[C@@H]3CC=C4C[C@@H](O)CC[C@]4(C)[C@H]3CC[C@]12C [Cholesterol, cholesterol] | 1 | 1 | 1 | – | – | – | – | – | –
